The target in this test is T1, M1 muscarinic receptor (Homo sapiens, UniProt P11229).
T1 sequence (P11229 1-460): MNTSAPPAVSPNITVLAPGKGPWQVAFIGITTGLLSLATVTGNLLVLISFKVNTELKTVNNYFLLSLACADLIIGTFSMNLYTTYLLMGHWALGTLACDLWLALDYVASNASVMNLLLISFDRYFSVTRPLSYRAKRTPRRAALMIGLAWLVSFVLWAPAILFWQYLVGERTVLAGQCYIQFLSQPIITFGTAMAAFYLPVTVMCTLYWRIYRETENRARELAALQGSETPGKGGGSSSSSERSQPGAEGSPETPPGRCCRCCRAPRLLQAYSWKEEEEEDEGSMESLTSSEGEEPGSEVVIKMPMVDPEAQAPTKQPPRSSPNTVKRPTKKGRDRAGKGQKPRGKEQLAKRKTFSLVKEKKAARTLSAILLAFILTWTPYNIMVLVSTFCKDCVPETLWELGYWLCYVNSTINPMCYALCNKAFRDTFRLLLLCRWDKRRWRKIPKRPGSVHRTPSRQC
The test can be described thus: inhibition of forskolin-stimulated cAMP, M1 CHO cells (M1Gi). The class given is cell-based. More on the design: host or cells: CHO cells, stably transfected. The following applies: for Emax: CHO; for Emax / EC50 / τ / RAi / Kd: M1Gi (↓cAMP); for Emax / EC50 / τ / Kd: Table 8; for effect on forskolin-stimulated production of cAMP: M1, non-preferential response, in words; for RAi: Table 8, relative to carbachol; for Kd: read-out: pKA (converted). As for the experimental part: Since activation of phospholipase C (PLC) via M2 and M4 receptors is weak, cells were transferred with G15 G-protein to facilitate coupling.
To determine level of cAMP, cells in suspension were pre-incubated for 1 h with 0.4 μM [^3H]adenine, washed, and incubated for 10 min in the presence of isobutylmethylxanthine and 10 μM forskolin. […] Incubation was ended by addition of 0.2 ml of 2.5 M HCl to the samples. Samples were applied to alumina columns (1.5 g of alumina per column), washed with 2 ml ammonium acetate (pH=7.0) and eluted from columns with 4 ml ammonium acetate and measured by liquid scintillation spectrometry. […] The incubation was stopped by addition of 0.5 ml of chloroform methanol HCl mixture (2:1:0.1). After separation of water and organic phases, 0.6 ml of water phase was applied to Dowex columns (1.5 g of Dowex per column), washed by 20 ml of 60 mM ammonium formate/5 mM sodium borate buffer and eluted from columns with 4 ml of 1M ammonium formate/0.1 formic acid buffer and measured by liquid scintillation spectrometry.
Measurements of the production of cAMP and inositol phosphates: Levels of second messengers cAMP and inositol phosphates were determined in radiochemical chromatography assays as described previously. To determine level of cAMP, cells in suspension were pre-incubated for 1 h with 0.4 μM [^3H]adenine, washed, and incubated for 10 min in the presence of isobutylmethylxanthine and 10 μM forskolin. […] Incubation was ended by addition of 0.2 ml of 2.5 M HCl to the samples. Samples were applied to alumina columns (1.5 g of alumina per column), washed with 2 ml ammonium acetate (pH=7.0) and eluted from columns with 4 ml ammonium acetate and measured by liquid scintillation spectrometry. […] For this purpose, new CHO cell lines stably expressing promiscuous G15 G-protein and M2 or M4 receptor were generated by transfection with pCMV/hygro vector and hygromycin selection. To determine the rate of formation of inositol phosphates IPX, suspended cells were pre-incubated with 0.1 μM [^3H]myo-inositol for 60 min, washed, and incubated with 10 mM LiCl for 15 min. […] The incubation was stopped by addition of 0.5 ml of chloroform methanol HCl mixture (2:1:0.1). After separation of water and organic phases, 0.6 ml of water phase was applied to Dowex columns (1.5 g of Dowex per column), washed by 20 ml of 60 mM ammonium formate/5 mM sodium borate buffer and eluted from columns with 4 ml of 1M ammonium formate/0.1 formic acid buffer and measured by liquid scintillation spectrometry.
For bi-phasic response, curves were inhibitory and stimulatory phase were fitted separately. Operational Model of Functional Agonism
[formula] where y is functional response at concentration of tested compound x, EMAX is maximal response of the system, KA is equilibrium dissociation constant and nH is slope factor. Eq. 5 was fitted to data from functional experiments. Eq. 5 was fitted to data by the two-step procedure described earlier. […] In the second step, Eq. 5 with EMAX fixed to the value determined in the first step was fitted to individual experimental data sets. Relative Intrinsic Activity
Muscarinic receptors are also able to stimulate non-preferential signalling pathways.

From patent publication US11591323B2, “Muscarinic agonists as non-steroidal and non-opioid analgesics and methods of use thereof” (Barry University, priority 2019, dated 2023) come the findings set out here.

SMILES strings stand for the structures.

As usually defined, the Emax is the greatest response seen or fitted, relative to the assay's reference. By EC50 is commonly meant the concentration needed to bring the measured effect to its halfway point. As for `C1=CCN(Cc2cccs2)CC1.Cl` [Compound 6A, 1-[(thiophen-2-yl)methyl]-1,2,3,6-tetrahydropyridin-1-ium chloride], the Emax was found to be 26 ± 2%, the “effect on forskolin-stimulated production of cAMP” value is “inhibited cAMP production”, the EC50 is 11.7 µM and the τ stood at 0.42 ± 0.04. Further, the RAi entry is “+inf” and the Kd is 15.8 µM.
In the case of `C[N+]1(Cc2cccs2)CC=CCC1.[I-]` (stereo not drawn) [Compound 7A, 1-methyl-1-[(thiophen-2-yl)methyl]-1,2,3,6-tetrahydropyridin-1-ium iodide], the Emax is 30 ± 3%, the “effect on forskolin-stimulated production of cAMP” value is “inhibited cAMP production”, the EC50 was 7.94 µM and the τ is recorded as 0.52 ± 0.05. The RAi result is reported as “+inf” and the Kd was 12.6 µM.
